Test system: soybeans
Assay: Field screening for metribuzin tolerance in soybeans (Example 11, 13)
Assay type: in vivo, Glycine max
Conditions: soybean lines containing a heterozygous (CT) allele of NGMAX006079502
Description: Field screening for metribuzin tolerance in soybeans was performed at the Monsanto Company Soybean Research Station near Mount Olive, N.C. in 2010 and 2011. Metribuzin application rate was 0.5 lbs/acre metribuzin (Sencor®, Bayer Crop Science, Research Triangle Park, N.C., U.S.A.) one day prior to planting. Rows were planted as single six foot row plots with 9 seed per foot. Multiple repetitions were grown per row. Within 24 hours after planting, the trial was irrigated with 0.5 inches of water to help incorporate and activate the herbicide. Injury ratings were taken fourteen to twenty one (14 to 21) days after planting using a 1 to 9 scale (for example, 1=no damage, 9=completely killed). After identifying the target region through the mapping population described in Example 12, a molecular marker was identified. An association study was done using a soybean molecular marker database. Over 200 commercial and breeding lines were characterized for metribuzin tolerance in field and greenhouse screening, as described in Example 11.

Structure (SMILES): CSc1nnc(C(C)(C)C)c(=O)n1N [Metribuzin, 4-amino-6-(1,1-dimethylethyl)-3-(methylthio)-1,2,4-triazin-5(4H)-one]
- metribuzin phenotype in the field: mixed phenotype of both tolerance and sensitivity
